Measured values taken from patent publication US8420052B2, “Imaging agents useful for identifying AD pathology” (Siemens Medical Solutions USA, Inc., priority 2008, dated 2013).

What was measured:
[1] = biological target: 18F-W372 binding sites, amyloid plaque and fibril in human brain slices (Homo sapiens, UniProt P05067); assay: Human AD brain slice competition against 18F-W372 (IC50); conditions: tracer 18F-W372, blocker 0.01 to 10 uM
Protocol: (§1) The slices were incubated at room temperature for 90 min. The slices were then quickly washed in PBS, followed by 70% EtOH:PBS for 2 min, then 30% EtOH:PBS for 2 min and then quickly washed with PBS. The slices were dried for 30 min and then exposed on autoradiographic film for 20 min. The brain slices were then removed from the slide and the radioactivity counted in a gamma counter. The percentage of blocking versus the concentrations of blocker was then plotted, and IC50 was calculated based on the curve.

[2] = biological target: 18F-PiB binding sites, amyloid plaque and fibril in human brain slices (Homo sapiens, UniProt P05067); assay: Human AD brain slice competition against 18F-PiB (IC50); conditions: for IC50: tracer 18F-PiB, human AD brain slices, blocker 0.01 to 10 uM
Protocol: as §1

[3] = biological target: synthetic beta-Amyloid-42 (Homo sapiens, UniProt P05067); assay: Amyloid fibril (synthetic A-Beta42) binding assay; conditions: 10 uM synthetic beta-Amyloid-42, 90 min; compared with 18F-PiB
Protocol: Amyloid Fibril (Synthetic A-Beta42) Binding Assay Incubation of various concentration of [F18]-compound (starting with 200 nM cold compound and 100 μCi of F18-compound) with or without 10 μM of synthetic beta-Amyloid-42 for 90 min Filter through G/F glass fiber, wash filter 2 times with 20% ethanol/PBS at room temperature, count the radioactivity, and measure the KD value.

[4] = Mouse brain microPET imaging; assay type: in vivo, mice
Protocol: Mouse Brain MicroPET Imaging
FIGS. 11 and 12 show the results of mouse brain imaging with 18F-W372 in WT and APP mice. […] There is not much difference between APP and WT mice, but both App mice do appear to be slightly better retained after 13 min (App:WT=1.5:1).
FIGS. 14a and 14b show a comparison of brain uptake between 18F-PiB and 18F-W372 using dynamic microPET scanning in young and old mice. […] The rapid washout of [18F]W372 is presumably a major factor for its low non-specific binding, yet the washout is slow enough to distinguish WT from APP.

[5] = Mouse metabolism studies (organ uptake and metabolites); assay type: in vivo; conditions: mice, tail-vein
Protocol: Approximately 400 μCi of [F-18]W372 (at a volume of 200 μL) was injected via tail-vein into mice. The animals were sacrificed at 5 minutes (n=3) and 30 minutes (n=3) post-injection. Whole blood was obtained, weighed, and centrifuged at 13,000 RPM (3 minutes) to isolate plasma. The brain, kidneys, and liver were harvested, weighed, and homogenized in lysis buffer. 400 μL of each sample was subsequently removed, mixed with an equal volume of chloroform/methanol (1:1), vigorously vortexed, and placed on dry ice for 3 minutes. After thawing, another centrifugation step at 13,000 RPM (7 minutes) allowed for the separation of lipid (CHCl3) and aqueous (MeOH/H2O) phases. The hydrophobic and hydrophilic fractions were then removed, counted for radioactivity in a PerkinElmer Wizard gamma counter, and finally analyzed by Radio-HPLC (Raytest GmbH/Agilent).

[6] = system: human brain slices from AD patients; assay: Grey to white matter binding of tracers on human AD brain slices under various washing conditions; conditions: EtOH:water washes
Protocol: A study was conducted to examine the grey to white matter binding ratios for 2 different tracers: 18F-W372 and 18F-PiB. After the human brain slices from AD patients were incubated with a given tracer for 1 hr, the slices were washed with various EtOH:water solutions in an attempt to optimize the grey to white matter ratios. The results were surprising and unexpected in view of previous work performed by other researchers.

[7] = system: amyloid plaques and fibrils in human brain slices; assay: Human brain slice competition assay using autoradiography; assay type: binding; conditions: radiolabeled tracer approx. 20 uCi, 90 min rt, lower = more displacement; for _max low dose (percent dose remaining relative to control with no blocker): blocker 0.25 uM; for _max high dose (percent dose remaining relative to control with no blocker): blocker 2.5 uM
Protocol: Human Brain Slice Competition Assay Using Autoradiography
Briefly, 5 micron thick human brain slices from regions of the brain bearing high amyloid plaque and fibril burden were incubated with approximately 20 uCi of a radiolabeled tracer in 2.5%:2.5%:95% DMSO:EtOH:PBS in the presence of blocker (2.5 and 0.25 uM total concentration) or absence of blocker (control). The slices were incubated at rt for 90 min. The slices were then quickly washed in PBS, followed by 70% EtOH:PBS for 2 min, then 30% EtOH:PBS for 2 min and then quickly washed with PBS. The slices were dried for 30 min and then exposed on autoradiographic film for 20 min. The brain slices were then removed from the slide and the radioactivity counted in a gamma counter. The percent dose remaining, relative to a control with no blocker, at 0.25 uM is represented in the “_max low dose” column. The percent dose remaining, relative to a control with no blocker, at 2.5 uM is represented in the “_max high dose” column.

Sequence of 18F-PiB binding sites, amyloid plaque and fibril in human brain slices (P05067 672-711 limits assumed): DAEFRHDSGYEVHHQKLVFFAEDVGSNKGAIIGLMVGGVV
Sequence of 18F-W372 binding sites, amyloid plaque and fibril in human brain slices (P05067 whole entry): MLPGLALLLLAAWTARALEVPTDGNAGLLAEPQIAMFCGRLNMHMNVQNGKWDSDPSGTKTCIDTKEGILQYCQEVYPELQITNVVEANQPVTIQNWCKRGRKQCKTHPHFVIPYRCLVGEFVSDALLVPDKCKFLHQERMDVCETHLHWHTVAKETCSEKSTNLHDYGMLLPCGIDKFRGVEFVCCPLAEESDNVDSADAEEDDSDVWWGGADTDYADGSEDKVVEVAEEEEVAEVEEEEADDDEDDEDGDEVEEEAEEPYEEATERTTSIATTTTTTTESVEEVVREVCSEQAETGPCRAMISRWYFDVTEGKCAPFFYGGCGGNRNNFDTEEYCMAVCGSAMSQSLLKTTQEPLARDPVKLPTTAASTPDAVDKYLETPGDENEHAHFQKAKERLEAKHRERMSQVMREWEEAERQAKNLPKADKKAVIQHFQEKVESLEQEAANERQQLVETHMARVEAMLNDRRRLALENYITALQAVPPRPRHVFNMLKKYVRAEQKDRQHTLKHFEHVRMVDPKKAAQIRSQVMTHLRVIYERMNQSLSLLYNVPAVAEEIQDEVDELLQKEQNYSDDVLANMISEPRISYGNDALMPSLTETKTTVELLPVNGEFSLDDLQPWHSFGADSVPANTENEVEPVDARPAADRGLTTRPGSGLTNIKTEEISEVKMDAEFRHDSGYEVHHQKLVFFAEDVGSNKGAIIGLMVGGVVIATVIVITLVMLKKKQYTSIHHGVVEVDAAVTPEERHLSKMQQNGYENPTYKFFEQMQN
Sequence of synthetic beta-Amyloid-42 (P05067 672-713 limits assumed): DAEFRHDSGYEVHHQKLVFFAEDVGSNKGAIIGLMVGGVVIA

## COc1ccc2c(n1)sc1nc(-c3cnc(F)cn3)cn12 [Compound W392, 7-methoxy-2(2-fluoropyrazin-5-yl)imidazo[2,1-b]8-pyridinothiazole]
[1]
  IC50: 210 nM

## COc1ccc2c(c1)sc1nc(-c3ccc(F)nc3)cn12 [Compound W388]
[1]
  IC50: 150 nM

## COc1ccc2c(n1)sc1nc(-c3ccc(F)cc3)cn12 [Compound W332]
[2]
  IC50: 79 nM

## COc1ccc2c(n1)sc1nc(-c3ccc(F)c(O)c3)cn12 [Compound W389]
[2]
  IC50: 130 nM

## COc1ccc2c(n1)sc1nc(-c3ccc(F)nc3)cn12 [Compound W372, 7-Methoxy-2(6-fluoropyridin-3-yl)imidazo[2,1-b]8-pyridinothiazole]
[1]
  IC50: 37 nM
[2]; human AD brains
  competition with 18F-PiB for binding sites / binding affinity relative to PiB: strongly competes with 18F-PiB for binding sites in human AD brains
[2]
  IC50: 73 nM

## COc1ccc2c(n1)sc1nc(-c3ccc([18F])nc3)cn12 [Compound 18F-W372]
[3]
  KD value, synthetic amyloid fibril: lower KD value compared with the known compound 18F-PiB
[4]; 30 minute dynamic scans, young/old, WT/App mice
  brain washout (microPET): sufficiently slow washout such that one can distinguish WT from APP mice
[4]; WT and APP mice
  brain uptake (microPET): > 9 % ID/g
[5]; 5 minutes post-injection
  brain uptake: 3.8 % ID/g
[5]; 30 minutes post-injection
  brain uptake: 0.47 % ID/g
[6]; 1 hr incubation
  grey to white matter binding ratios: excellent grey to white matter binding ratios
[6]
  non-specific (white matter) binding: lower non-specific binding than 18F-PiB

## COc1ccc2c(n1)oc1nc(-c3ccc(F)cc3)cn12 [Compound W386, 7-Methoxy-2(4-fluorophenyl)imidazo[2,1-b]8-pyridino-oxazole]
[1]
  IC50: 71 nM
[2]
  IC50: 210 nM

## COc1ccc2c(n1)oc1nc(-c3ccc(F)nc3)cn12 [Compound W393]
[1]
  IC50: 170 nM

## COc1ccc2c(c1)oc1nc(-c3ccc(F)cn3)cn12 [Compound W380, 7-methoxy-2-(5-fluoro-2-pyridyl)-imidazo[2,1-b]benzoxazole]
[2]
  IC50: 73 nM

## Nc1ccc2[nH]c3ccc(OCc4ccccc4)cc3c2c1 [Compound W60]
[7]
  _max low dose (percent dose remaining relative to control with no blocker): 105.87%
  _max high dose (percent dose remaining relative to control with no blocker): 115.14%

## CN(C)c1ccc(-c2ncc(/C=C/c3ccc(O)cc3)s2)cc1 [UG-4-69, (E)-4-(2-(2-(4-(dimethylamino)phenyl)thiazol-5-yl)vinyl)phenol]
[7]
  _max low dose (percent dose remaining relative to control with no blocker): 69.79%
  _max high dose (percent dose remaining relative to control with no blocker): 31.02%

## CNc1ccc2c(c1)[nH]c1cc(OCc3ccccc3)ccc12 [Compound W104]
[7]
  _max low dose (percent dose remaining relative to control with no blocker): 48.35%
  _max high dose (percent dose remaining relative to control with no blocker): 34.77%

## CNc1ccc(-c2ccc3scnc3c2)cc1 [Compound W189, 4-(benzo[d]thiazol-5-yl)-N-methylaniline]
[7]
  _max high dose (percent dose remaining relative to control with no blocker): 9.53%

## O=c1sc2ccccc2n1/C=C/c1ccccc1 [Compound W88]
[7]
  _max low dose (percent dose remaining relative to control with no blocker): 29.58%
  _max high dose (percent dose remaining relative to control with no blocker): 7.65%

## Cn1c2ccccc2c2ccc(OCCOCCOCCF)cc21 [CB6]
[7]
  _max low dose (percent dose remaining relative to control with no blocker): 111.02%
  _max high dose (percent dose remaining relative to control with no blocker): 113.69%
